# US20220105041A1, “METHOD FOR MANUFACTURING A SOLID ADMINISTRATION FORM AND SOLID ADMINISTRATION” (priority 2019, published 2022)
# Assay: Dissolution (release of caffeine) of 3D printed tablets, paddle method, Sotax AT 7smart
# Type: physicochemical
# Settings: 900 ml 0.1 n HCl, 37° C., paddle 100 rpm, UV 272 nm
# Experimental: Release of caffeine as active ingredient is determined using the Sotax Freisetzungsapparatur Sotax AT 7smart (Sotax AG, Lörrach, Germany) […]
# Each sample is collected in a test tube with the automatic sampler.
# Device: Release apparatus: Sotax AT 7smart (Sotax AG, Lörrach, Germany), Photometer Agilent 8453 (Agilent Technologies, Waldbronn, Germany)
# Temperature of medium: 37° C.
# Cuvette layer thickness: 10 mm
# FIG. 31 illustrates results achieved by dissolution measurement of 3D printed caffeine containing tablets in 900 ml of 0.1 n HCl. […] To dissolute and release the full API amount of a filled tablet (100%) needs 360 minutes for entire release of the comprising API, while a 3D printed tablet, 50% filled, already releases 100% of the comprising API amount after app 30 minutes in the dissolution equipment. The time measured is […] dissolving pure crystalline caffeine particles tested in comparison by 100% after app 5 minutes.
smiles,measurement,value
"Cn1c(=O)c2c(ncn2C)n(C)c1=O [pure crystalline caffeine, Caffeine]",time to release 100% (full amount) of API caffeine,~5 min
